Literature values in patent US6395296B1, “Soluble double metal salt of group IA and IIA of hydroxycitric acid, process of preparing the same and its use in beverages and other food products without effecting their flavor and properties” (priority 1997, dated 2002).

Legend:
[1] = tested on: conversion of excess carbohydrates to fat; details: in animals; established by several scientists including at Hoffman-La Roche
[2] = tested on: ATP dependent citrate-lyase; details: key enzyme in diverting carbohydrate to fatty acids and cholesterol synthesis; Sullivan et al., Sergio

O=C(O)CC(O)(C(=O)O)C(O)C(=O)O (single isomer, unassigned; (-)) [HCA, (−) Hydroxycitric acid]
conversion of excess carbohydrates to fat [1]: prevents the conversion of excess carbohydrates to fat | inhibition of ATP dependent citrate-lyase [2]: inhibit
